In experiment [1] the test system is Calpain activity in SH-SY5Y cells. Briefly: SH-SY5Y + AMC fluorescence assay (Suc-LLVY-AMC substrate). The experiment is classed as cell-based. The conditions noted are these: read-out: SH-SY5Y + AMC IC50.
Another experiment addresses T1, Human Calpain 9/NS1 (Homo sapiens, UniProt O14815).
T1 sequence (O14815 1-690): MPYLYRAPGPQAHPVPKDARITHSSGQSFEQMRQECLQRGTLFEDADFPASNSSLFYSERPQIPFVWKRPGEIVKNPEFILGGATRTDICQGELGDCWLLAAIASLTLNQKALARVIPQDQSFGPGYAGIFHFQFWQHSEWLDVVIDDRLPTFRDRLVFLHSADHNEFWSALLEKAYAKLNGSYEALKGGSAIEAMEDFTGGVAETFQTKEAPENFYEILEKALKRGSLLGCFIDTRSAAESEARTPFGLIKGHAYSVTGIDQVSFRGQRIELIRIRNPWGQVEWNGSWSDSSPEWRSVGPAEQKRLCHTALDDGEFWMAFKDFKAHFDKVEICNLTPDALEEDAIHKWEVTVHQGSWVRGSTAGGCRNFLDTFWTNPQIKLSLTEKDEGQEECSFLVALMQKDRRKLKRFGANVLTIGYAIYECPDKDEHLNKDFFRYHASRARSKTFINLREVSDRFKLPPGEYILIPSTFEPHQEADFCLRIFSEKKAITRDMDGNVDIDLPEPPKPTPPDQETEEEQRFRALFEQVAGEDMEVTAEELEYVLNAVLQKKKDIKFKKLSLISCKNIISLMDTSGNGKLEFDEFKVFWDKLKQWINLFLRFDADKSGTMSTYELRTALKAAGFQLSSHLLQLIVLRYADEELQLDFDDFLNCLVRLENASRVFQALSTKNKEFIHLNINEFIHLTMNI
T1 sequence (P04632 1-268 partner): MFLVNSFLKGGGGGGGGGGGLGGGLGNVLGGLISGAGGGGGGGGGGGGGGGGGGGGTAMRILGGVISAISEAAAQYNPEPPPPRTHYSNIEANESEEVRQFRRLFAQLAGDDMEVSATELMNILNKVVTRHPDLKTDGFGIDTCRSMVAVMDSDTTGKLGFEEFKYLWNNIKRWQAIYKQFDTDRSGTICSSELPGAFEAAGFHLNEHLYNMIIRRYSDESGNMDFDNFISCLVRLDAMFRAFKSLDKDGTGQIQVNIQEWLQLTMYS
As to the kind of experiment: Calpain inhibition continuous fluorescence (FRET) assay, Human Calpain 9/NS1. The experiment is classed as biochemical. A digest of the protocol:
(§1)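 Fluorescence increase from the cleaved 5-FAM/QXL 520 substrate, read at 490/520 nm, gave activity. Calcium was supplied with the substrate to activate the enzyme in situ after a 25C enzyme-inhibitor preincubation, and IC50s were fit from initial slopes.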

A further experiment has as its target T2, Human Calpain 2/NS1 (Homo sapiens, UniProt P17655).
T2 sequence (P17655 1-700): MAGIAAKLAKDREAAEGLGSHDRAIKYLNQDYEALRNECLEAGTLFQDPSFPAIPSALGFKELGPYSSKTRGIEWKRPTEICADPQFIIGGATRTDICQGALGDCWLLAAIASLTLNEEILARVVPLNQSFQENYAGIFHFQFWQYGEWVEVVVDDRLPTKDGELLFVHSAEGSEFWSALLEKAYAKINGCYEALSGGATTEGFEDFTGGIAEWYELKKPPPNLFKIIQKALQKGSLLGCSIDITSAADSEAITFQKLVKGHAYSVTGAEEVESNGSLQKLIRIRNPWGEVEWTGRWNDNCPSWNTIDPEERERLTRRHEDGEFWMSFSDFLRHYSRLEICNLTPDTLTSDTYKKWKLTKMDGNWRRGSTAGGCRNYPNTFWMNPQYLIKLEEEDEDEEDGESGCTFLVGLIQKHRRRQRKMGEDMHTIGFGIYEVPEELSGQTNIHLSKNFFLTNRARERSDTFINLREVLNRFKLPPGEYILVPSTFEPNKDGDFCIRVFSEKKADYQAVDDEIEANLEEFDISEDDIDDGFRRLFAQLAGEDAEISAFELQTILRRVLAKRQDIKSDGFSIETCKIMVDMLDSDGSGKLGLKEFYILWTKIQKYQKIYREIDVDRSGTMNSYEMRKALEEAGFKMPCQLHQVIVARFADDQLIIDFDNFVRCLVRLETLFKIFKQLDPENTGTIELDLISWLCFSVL
T2 sequence (P04632 1-268 partner): T1 sequence (P04632 1-268 partner)
As to the kind of experiment: Calpain inhibition continuous fluorescence (FRET) assay, Human Calpain 2/NS1. The experiment is classed as biochemical. The method, boiled down:
as §1

The target in a further experiment is T3, Human Calpain 1/NS1 (Homo sapiens, UniProt P07384).
T3 sequence (P07384 1-714): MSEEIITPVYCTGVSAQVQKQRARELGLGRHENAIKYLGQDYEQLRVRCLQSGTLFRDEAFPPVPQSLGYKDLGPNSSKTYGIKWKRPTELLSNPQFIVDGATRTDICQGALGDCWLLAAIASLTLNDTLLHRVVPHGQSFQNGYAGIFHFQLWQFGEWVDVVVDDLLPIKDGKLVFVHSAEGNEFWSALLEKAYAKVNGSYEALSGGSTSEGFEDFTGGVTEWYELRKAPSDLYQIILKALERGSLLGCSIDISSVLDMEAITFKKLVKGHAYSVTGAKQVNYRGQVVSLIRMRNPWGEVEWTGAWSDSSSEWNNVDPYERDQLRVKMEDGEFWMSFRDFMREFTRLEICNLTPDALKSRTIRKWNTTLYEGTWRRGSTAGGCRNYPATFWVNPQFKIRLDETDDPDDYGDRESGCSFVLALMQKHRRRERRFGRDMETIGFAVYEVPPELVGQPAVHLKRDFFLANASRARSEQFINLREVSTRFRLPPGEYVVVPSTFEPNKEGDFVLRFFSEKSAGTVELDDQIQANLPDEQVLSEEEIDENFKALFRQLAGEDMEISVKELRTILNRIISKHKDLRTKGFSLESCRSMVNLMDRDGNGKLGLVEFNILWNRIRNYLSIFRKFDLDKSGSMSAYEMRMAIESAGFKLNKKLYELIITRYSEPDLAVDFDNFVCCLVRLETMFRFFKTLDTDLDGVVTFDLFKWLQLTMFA
T3 sequence (P04632 1-268 partner): T1 sequence (P04632 1-268 partner)
As to the kind of experiment: Calpain inhibition continuous fluorescence (FRET) assay, Human Calpain 1/NS1. The experiment is classed as biochemical. The method, boiled down:
as §1

Experiment [2] has as its system Calpain activity in SH-SY5Y cells (SBDP-150). As to the kind of experiment: SH-SY5Y Spectrin western blot assay (SBDP-150 breakdown product, A23187-induced). It counts as cell-based. The note with it: Homo sapiens, read-out: SH-SY5Y Spectrin IC50. Background: A western blot detects proteins with antibodies after separation by electrophoresis.
Where [3] appears, read: read-out: Human Calpain 9/NS1 IC50.
Setting [4] is: read-out: Human Calpain 2/NS1 IC50.
Setting [5] is: read-out: Human Calpain 1/NS1 IC50.
The mark [6] stands for this setting: SH-SY5Y cells, A23187-induced SBDP-150, western blot.
[7] abbreviates: Column C, read-out: Human Calpain 9/NS1 IC50.
Setting [8] is: Column B, read-out: Human Calpain 2/NS1 IC50.
[9] abbreviates: Column A, read-out: Human Calpain 1/NS1 IC50.
The mark [10] stands for this setting: Column D, SH-SY5Y cells, A23187-induced SBDP-150.

Like-named read-outs stand apart in the source and are kept apart here.

Regarding `Cn1cc(C(=O)N[C@H](C(=O)C(N)=O)C2Cc3ccccc3C2)c(-c2ccccc2F)n1` [Compound 553, (S)—N-(3-amino-1-(2,3-dihydro-1H-inden-2-yl)-2,3-dioxopropyl)-3-(2-fluorophenyl)-1-methyl-1H-pyrazole-4-c arboxamide], the IC50 was under 10 µM in experiment [1]; under 3 µM at Human Calpain 9/NS1 (setting [3]); under 3 µM at Human Calpain 2/NS1 (setting [4]); under 3 µM on Human Calpain 1/NS1 (setting [5]); over 25 µM in experiment [2] (setting [6]).
Regarding `Cn1cnc(-c2ccccc2)c1C(=O)N[C@@H](Cc1ccccc1)C(=O)C(N)=O` [Compound 268, (S)—N-(4-amino-3,4-dioxo-1-phenylbutan-2-yl)-1-methyl-4-phenyl-1H-imidazole-5-carboxamide], the IC50 was over 25 µM in experiment [1] (Column E); under 3 µM at Human Calpain 9/NS1 (setting [7]); under 3 µM on Human Calpain 2/NS1 (setting [8]); under 3 µM on Human Calpain 1/NS1 (setting [9]); over 25 µM in experiment [2] (setting [10]).
Regarding `COc1cccc(-c2nn(C)cc2C(=O)N[C@@H](Cc2ccccc2)C(=O)C(N)=O)c1` [Compound 177, (S)—N-(4-amino-3,4-dioxo-1-phenylbutan-2-yl)-3-(3-methoxyphenyl)-1-methyl-1H-pyrazole-4-carboxamide], the IC50 in experiment [1] (Column E) was under 10 µM; at Human Calpain 9/NS1 (setting [7]), under 3 µM; on Human Calpain 2/NS1 (setting [8]), under 3 µM; at Human Calpain 1/NS1 (setting [9]), under 3 µM; in experiment [2] (setting [10]), 10 to 25 µM.
Consider `Cc1cc(C(=O)N[C@@H](Cc2ccccc2)C(=O)CF)n(-c2ccccc2)n1` [Compound 479, (S)—N-(4-fluoro-3-oxo-1-phenylbutan-2-yl)-3-methyl-1-phenyl-1H-pyrazole-5-carboxamide], for which the IC50 in experiment [1] is over 25 µM; on Human Calpain 9/NS1 (setting [3]) it was under 3 µM; on Human Calpain 2/NS1 (setting [4]), under 3 µM; on Human Calpain 1/NS1 (setting [5]) it was under 3 µM; in experiment [2] (setting [6]), 10 to 25 µM.
As to `Cc1ccc(F)cc1-c1oncc1C(=O)NC(Cc1ccccc1)C(=O)C(N)=O` (stereo not drawn) [Compound 558, N-(4-amino-3,4-dioxo-1-phenylbutan-2-yl)-5-(5-fluoro-2-methylphenyl)isoxazole-4-carboxamide], the IC50 is under 10 µM in experiment [1]; under 3 µM at Human Calpain 9/NS1 (setting [3]); under 3 µM at Human Calpain 2/NS1 (setting [4]); under 3 µM at Human Calpain 1/NS1 (setting [5]); 10 to 25 µM in experiment [2] (setting [6]).
`Cc1cc(C(=O)N[C@H](C=O)Cc2ccccc2)n(-c2cnccn2)n1` [Compound 285, (S)-3-methyl-N-(1-oxo-3-phenylpropan-2-yl)-1-(pyrazin-2-yl)-1H-pyrazole-5-carboxamide]: the IC50 was 10 to 25 µM in experiment [1] (Column E); under 3 µM on Human Calpain 9/NS1 (setting [7]); under 3 µM at Human Calpain 2/NS1 (setting [8]); under 3 µM at Human Calpain 1/NS1 (setting [9]); over 25 µM in experiment [2] (setting [10]).
For `Cn1cc(C(=O)NC(Cc2ccccc2)C(=O)C(N)=O)c(-c2cccc3ncccc23)n1` (stereo not drawn) [Compound 597, N-(4-amino-3,4-dioxo-1-phenylbutan-2-yl)-1-methyl-3-(quinolin-5-yl)-1H-pyrazole-4-carboxamide], the IC50 was 10 to 25 µM in experiment [1]; under 3 µM on Human Calpain 9/NS1 (setting [3]); under 3 µM at Human Calpain 2/NS1 (setting [4]); under 3 µM on Human Calpain 1/NS1 (setting [5]); 10 to 25 µM in experiment [2] (setting [6]).
Turning to `Cc1ccncc1-c1nn(C(F)F)cc1C(=O)NC(Cc1ccccc1)C(=O)C(N)=O` (stereo not drawn) [Compound 522, N-(4-amino-3,4-dioxo-1-phenylbutan-2-yl)-1-(difluoromethyl)-3-(4-methylpyridin-3-yl)-1H-pyrazole-4-carboxamide], the IC50 was under 10 µM in experiment [1]; under 3 µM at Human Calpain 9/NS1 (setting [3]); under 3 µM on Human Calpain 2/NS1 (setting [4]); under 3 µM on Human Calpain 1/NS1 (setting [5]); over 25 µM in experiment [2] (setting [6]).
Regarding `Cc1cc(C(=O)N[C@@H](Cc2ccccc2)C(=O)C(N)=O)n(-c2cccc(CNC(=O)Oc3ccccc3)c2)n1` [Compound 344, Phenyl (S)-(3-(5-((4-amino-3,4-dioxo-1-phenylbutan-2-yl)carbamoyl)-3-methyl-1H-pyrazol-1-yl)benzyl)carbamate], the IC50 in experiment [1] was 10 to 25 µM; at Human Calpain 9/NS1, under 3 µM; against Human Calpain 2/NS1, under 3 µM; on Human Calpain 1/NS1, under 3 µM; in experiment [2] (SH-SY5Y), over 25 µM.
In the case of `NC(=O)C(=O)C(Cc1ccccc1)NC(=O)c1cn(C(F)F)nc1-c1cc(F)ccc1F` (stereo not drawn) [Compound 552, N-(4-amino-3,4-dioxo-1-phenylbutan-2-yl)-1-(difluoromethyl)-3-(2,5-difluorophenyl)-1H-pyrazole-4-carboxamide], the IC50 in experiment [1] is under 10 µM; at Human Calpain 9/NS1 (setting [3]), under 3 µM; on Human Calpain 2/NS1 (setting [4]), under 3 µM; on Human Calpain 1/NS1 (setting [5]), under 3 µM; in experiment [2] (setting [6]) it was under 10 µM.
`NC(=O)C(=O)[C@H](Cc1ccccc1)NC(=O)c1cncn1-c1nc2ccccc2s1` [Compound 50, (S)—N-(4-amino-3,4-dioxo-1-phenylbutan-2-yl)-1-(benzo[d]thiazol-2-yl)-1H-imidazole-5-carboxamide]: the IC50 in experiment [1] (Column E) was over 25 µM; at Human Calpain 9/NS1 (setting [7]), under 3 µM; at Human Calpain 2/NS1 (setting [8]) it was under 3 µM; on Human Calpain 1/NS1 (setting [9]), under 3 µM; in experiment [2] (setting [10]), under 10 µM.
As for `Cn1cc(C(=O)NC(Cc2ccccc2)C(=O)C(N)=O)c(C2CCCCC2)n1` (stereo not drawn) [Compound 573, N-(4-amino-3,4-dioxo-1-phenylbutan-2-yl)-3-cyclohexyl-1-methyl-1H-pyrazole-4-carboxamide], the IC50 in experiment [1] was under 10 µM; at Human Calpain 9/NS1 (setting [3]), under 3 µM; on Human Calpain 2/NS1 (setting [4]), under 3 µM; on Human Calpain 1/NS1 (setting [5]), under 3 µM; in experiment [2] (setting [6]) it was over 25 µM.

These data come from patent publication US11339130B1 (Blade Therapeutics, Inc., priority 2016, dated 2022).
